EC50 and Emax data for 13 molecules are collected here from US20240208992A1, “MACROCYCLES AS CFTR MODULATORS” (Idorsia Pharmaceuticals Ltd, priority 2021, published 2024).

The pEC50 is −log10 of the EC50, conventionally taken in molar units. As usually defined, the Emax is the maximal effect, on the per cent scale that the assay sets.

pEC50: −log10 of the molar value.

The target in the experiment is human F508del-CFTR (Homo sapiens, UniProt P13569, DEL508-508). Description: F508del-CFTR cell surface expression (corrector activity), DiscoveRx ß-galactosidase complementation chemiluminescence assay in recombinant U2OS cell line.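 As to all read-outs here: U2OS cells co-expressing ProLink-tagged F508del-CFTR and a membrane-anchored enzyme acceptor, where more surface CFTR restores β-galactosidase activity measured by chemiluminescence.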 Particulars: U2OS cells, 16h compound incubation; for pEC50: EC50, F508del-CFTR cell surface expression, geomean of several measurements; for Emax: U2OS, in relation to the Emax of the corrector lumacaftor (=100%), arithmetic mean.
Chain of human F508del-CFTR (P13569 with tags, fused parts or gaps DEL508-508): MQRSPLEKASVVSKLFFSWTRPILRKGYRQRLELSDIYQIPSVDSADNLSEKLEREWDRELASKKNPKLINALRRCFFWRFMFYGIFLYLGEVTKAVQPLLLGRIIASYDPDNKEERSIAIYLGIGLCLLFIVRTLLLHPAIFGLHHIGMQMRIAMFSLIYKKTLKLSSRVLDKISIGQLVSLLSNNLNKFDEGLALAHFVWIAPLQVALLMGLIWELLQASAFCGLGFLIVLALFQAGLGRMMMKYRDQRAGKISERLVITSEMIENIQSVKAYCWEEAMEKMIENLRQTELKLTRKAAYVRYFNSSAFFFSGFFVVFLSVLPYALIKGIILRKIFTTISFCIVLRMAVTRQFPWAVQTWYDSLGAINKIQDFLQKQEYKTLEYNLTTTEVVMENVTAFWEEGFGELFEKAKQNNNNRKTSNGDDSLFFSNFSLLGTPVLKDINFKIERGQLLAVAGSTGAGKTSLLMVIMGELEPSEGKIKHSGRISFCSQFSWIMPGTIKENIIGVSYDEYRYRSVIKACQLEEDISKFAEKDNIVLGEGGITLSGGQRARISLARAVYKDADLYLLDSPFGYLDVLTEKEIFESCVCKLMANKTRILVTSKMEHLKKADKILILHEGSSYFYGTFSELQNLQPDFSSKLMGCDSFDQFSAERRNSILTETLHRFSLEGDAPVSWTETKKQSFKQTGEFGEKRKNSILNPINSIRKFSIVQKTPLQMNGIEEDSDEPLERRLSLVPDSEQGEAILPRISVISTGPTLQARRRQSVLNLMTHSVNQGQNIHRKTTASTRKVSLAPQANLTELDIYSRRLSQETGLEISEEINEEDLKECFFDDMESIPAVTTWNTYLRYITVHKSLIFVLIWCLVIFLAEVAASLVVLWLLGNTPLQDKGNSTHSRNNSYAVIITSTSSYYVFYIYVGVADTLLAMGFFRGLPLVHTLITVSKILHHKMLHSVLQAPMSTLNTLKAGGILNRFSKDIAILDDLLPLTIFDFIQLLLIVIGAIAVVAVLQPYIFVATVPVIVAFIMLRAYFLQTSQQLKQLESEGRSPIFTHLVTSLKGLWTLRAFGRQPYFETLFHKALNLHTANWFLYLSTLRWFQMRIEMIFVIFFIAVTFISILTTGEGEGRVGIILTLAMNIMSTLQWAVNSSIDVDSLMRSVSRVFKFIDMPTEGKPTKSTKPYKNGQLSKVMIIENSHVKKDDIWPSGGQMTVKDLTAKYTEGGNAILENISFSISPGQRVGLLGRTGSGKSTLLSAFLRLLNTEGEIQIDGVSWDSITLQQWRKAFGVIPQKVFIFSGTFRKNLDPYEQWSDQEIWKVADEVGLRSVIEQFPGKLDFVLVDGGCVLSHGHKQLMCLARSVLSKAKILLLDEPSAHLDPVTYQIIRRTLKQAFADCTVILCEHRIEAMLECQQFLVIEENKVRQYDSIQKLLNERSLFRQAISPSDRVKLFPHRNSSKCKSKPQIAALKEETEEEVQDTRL

For `CCOCC[C@@H]1C(=O)N[C@H](Cc2ccccc2)COc2ccc3cnc(C)cc3c2C(=O)N[C@H](C(=O)NCCc2nc(OC)no2)CC(=O)N(C)[C@@H](CC(C)C)C(=O)N1C` [Example 914, (3S,7S,10R,13R)-13-benzyl-10-(2-ethoxyethyl)-7-isobutyl-N-(2-(3-methoxy-1,2,4-oxadiazol-5-yl)ethyl)-6,9,20-trimethyl-1,5,8,11-tetraoxo-1,2,3,4,5,6,7,8,9,10,11,12,13,14-tetradecahydro-[1]oxa[4,7,10,14]tetraazacycloheptadecino[16,17-f]isoquinoline-3-carboxamide], the pEC50 was 6.43 and the Emax is 358%.

Consider `CCOCC[C@@H]1C(=O)N[C@H](Cc2ccccc2)COc2ccc3cnc(C)cc3c2C(=O)N[C@H](C(=O)NCCn2nnc(C3CC3)n2)CC(=O)N(C)[C@@H](CC(C)C)C(=O)N1C` [Example 915, (3S,7S,10R,13R)-13-benzyl-N-(2-(5-cyclopropyl-2H-tetrazol-2-yl)ethyl)-10-(2-ethoxyethyl)-7-isobutyl-6,9,20-trimethyl-1,5,8,11-tetraoxo-1,2,3,4,5,6,7,8,9,10,11,12,13,14-tetradecahydro-[1]oxa[4,7,10,14]tetraazacycloheptadecino[16,17-f]isoquinoline-3-carboxamide], for which the pEC50 is 6.48 and the Emax turned out to be 361%.

On to `COc1noc(CCNC(=O)[C@@H]2CC(=O)N(C)[C@@H](CC(C)C)C(=O)N(C)[C@H](Cc3nc(-c4ccc(F)cn4)no3)C(=O)N[C@H](Cc3ccccc3)COc3ccc4ncc(F)cc4c3C(=O)N2)n1` [Example 916, (3S,7S,10R,13R)-13-benzyl-20-fluoro-10-((3-(5-fluoropyridin-2-yl)-1,2,4-oxadiazol-5-yl)methyl)-7-isobutyl-N-(2-(3-methoxy-1,2,4-oxadiazol-5-yl)ethyl)-6,9-dimethyl-1,5,8,11-tetraoxo-1,2,3,4,5,6,7,8,9,10,11,12,13,14-tetradecahydro-[1]oxa[4,7,10,14]tetraazacycloheptadecino[16,17-f]quinoline-3-carboxamide], for which the pEC50 is 6.71 and the Emax was determined as 470%.

In the case of `COc1noc(CCNC(=O)[C@@H]2CC(=O)N(C)[C@@H](CC(C)C)C(=O)N(C)[C@H](Cc3nc(-c4ccc(F)cn4)no3)C(=O)N[C@H](Cc3ccccc3)COc3ccc4cnc(C)cc4c3C(=O)N2)n1` [Example 917, (3S,7S,10R,13R)-13-benzyl-10-((3-(5-fluoropyridin-2-yl)-1,2,4-oxadiazol-5-yl)methyl)-7-isobutyl-N-(2-(3-methoxy-1,2,4-oxadiazol-5-yl)ethyl)-6,9,20-trimethyl-1,5,8,11-tetraoxo-1,2,3,4,5,6,7,8,9,10,11,12,13,14-tetradecahydro-[1]oxa[4,7,10,14]tetraazacycloheptadecino[16,17-f]isoquinoline-3-carboxamide], the pEC50 was 6.31 and the Emax was 398%.

Take `COc1noc(CCNC(=O)[C@@H]2CC(=O)N(C)[C@@H](CC(C)C)C(=O)N(C)[C@H](Cc3nc(C(F)(F)F)no3)C(=O)N[C@H](Cc3ccccc3)COc3ccc4cnc(C)cc4c3C(=O)N2)n1` [Example 918, (3S,7S,10R,13R)-13-benzyl-7-isobutyl-N-(2-(3-methoxy-1,2,4-oxadiazol-5-yl)ethyl)-6,9,20-trimethyl-1,5,8,11-tetraoxo-10-((3-(trifluoromethyl)-1,2,4-oxadiazol-5-yl)methyl)-1,2,3,4,5,6,7,8,9,10,11,12,13,14-tetradecahydro-[1]oxa[4,7,10,14]tetraazacycloheptadecino[16,17-f]isoquinoline-3-carboxamide]: the pEC50 is 7.38 and the Emax was 462%.

As to `COc1noc(CCNC(=O)[C@@H]2CC(=O)N(C)[C@@H](CC(C)C)C(=O)N(C)[C@H](Cc3nc(C(F)(F)F)no3)C(=O)N[C@H](Cc3ccccc3)COc3cc(C)nc(OC)c3C(=O)N2)n1` [Example 919, (3R,6R,9S,13S)-3-benzyl-9-isobutyl-16-methoxy-N-(2-(3-methoxy-1,2,4-oxadiazol-5-yl)ethyl)-7,10,18-trimethyl-5,8,11,15-tetraoxo-6-((3-(trifluoromethyl)-1,2,4-oxadiazol-5-yl)methyl)-2,3,4,5,6,7,8,9,10,11,12,13,14,15-tetradecahydropyrido[3,4-p][1]oxa[4,7,10,14]tetraazacycloheptadecine-13-carboxamide], the pEC50 is 6.98 and the Emax is 443%.

Take `COc1noc(CCNC(=O)[C@@H]2CC(=O)N(C)[C@@H](CC(C)C)C(=O)N3CCCC[C@@H]3C(=O)N[C@H](Cc3ccccc3)COc3cc(C)c4ncccc4c3C(=O)N2)n1` [Example 920, (9S,13S,19aR,22R)-22-benzyl-13-isobutyl-N-(2-(3-methoxy-1,2,4-oxadiazol-5-yl)ethyl)-2,12-dimethyl-7,11,14,20-tetraoxo-7,8,9,10,11,12,13,14,17,18,19,19a,20,21,22,23-hexadecahydro-16H-pyrido[2′,1′:6,7][1]oxa[4,7,10,14]tetraazacycloheptadecino[16,17-f]quinoline-9-carboxamide]: the negative-log EC50 (pEC50) was 6.76 and the Emax stood at 380%.

Consider `Cc1cc2c3c(ccc2cn1)OC[C@@H](Cc1ccccc1)NC(=O)[C@@H](Cc1nc(C(F)F)no1)N(C)C(=O)[C@H](CC(C)C)N(C)C(=O)C[C@@H](C(=O)NCCn1nnc(C2CC2)n1)NC3=O` [Example 921, (3S,7S,10R,13R)-13-benzyl-N-(2-(5-cyclopropyl-2H-tetrazol-2-yl)ethyl)-10-((3-(difluoromethyl)-1,2,4-oxadiazol-5-yl)methyl)-7-isobutyl-6,9,20-trimethyl-1,5,8,11-tetraoxo-1,2,3,4,5,6,7,8,9,10,11,12,13,14-tetradecahydro-[1]oxa[4,7,10,14]tetraazacycloheptadecino[16,17-f]isoquinoline-3-carboxamide], for which the pEC50 is 6.64 and the Emax was 393%.

`COc1noc(CCNC(=O)[C@@H]2CC(=O)N(C)[C@@H](CC(C)C)C(=O)N(C)C3(CC(F)(F)C3)C(=O)N[C@H](Cc3ccccc3)COc3ccc4ncc(F)cc4c3C(=O)N2)n1` [Example 922, (3′S,7′S,13′R)-13′-benzyl-3,3,20′-trifluoro-7′-isobutyl-N-(2-(3-methoxy-1,2,4-oxadiazol-5-yl)ethyl)-6′,9′-dimethyl-1′,5′,8′,11′-tetraoxo-2′,3′,4′,5′,6′,7′,8′,9′,11′,12′,13′,14′-dodecahydro-1′H-spiro[cyclobutane-1,10′-[1]oxa[4,7,10,14]tetraazacycloheptadecino[16,17-f]quinoline]-3′-carboxamide]: the pEC50 is 6.52 and the Emax came out at 396%.

As to `Cc1cc2c(c3cccnc13)C(=O)N[C@H](C(=O)NCCn1nnc(C3CC3)n1)CC(=O)N(C)[C@@H](CC(C)C)C(=O)N(C)[C@H](Cc1nc(C(F)(F)F)no1)C(=O)N[C@H](Cc1ccccc1)CO2` [Example 923, (3S,7S,10R,13R)-13-benzyl-N-(2-(5-cyclopropyl-2H-tetrazol-2-yl)ethyl)-7-isobutyl-6,9,17-trimethyl-1,5,8,11-tetraoxo-10-((3-(trifluoromethyl)-1,2,4-oxadiazol-5-yl)methyl)-1,2,3,4,5,6,7,8,9,10,11,12,13,14-tetradecahydro-[1]oxa[4,7,10,14]tetraazacycloheptadecino[16,17-f]quinoline-3-carboxamide], the pEC50 is 7.59 and the Emax came out at 500%.

As for `CC(C)C[C@H]1C(=O)N(C)[C@H](Cc2nc(C(F)(F)F)no2)C(=O)N[C@H](Cc2ccccc2)COc2ccc3ncc(F)cc3c2C(=O)N[C@H](C(=O)NCCn2nnc(C3CC3)n2)CC(=O)N1C` [Example 924, (3S,7S,10R,13R)-13-benzyl-N-(2-(5-cyclopropyl-2H-tetrazol-2-yl)ethyl)-20-fluoro-7-isobutyl-6,9-dimethyl-1,5,8,11-tetraoxo-10-((3-(trifluoromethyl)-1,2,4-oxadiazol-5-yl)methyl)-1,2,3,4,5,6,7,8,9,10,11,12,13,14-tetradecahydro-[1]oxa[4,7,10,14]tetraazacycloheptadecino[16,17-f]quinoline-3-carboxamide], the pEC50 was 7.48 and the Emax stood at 409%.

As for `CC(C)C[C@H]1C(=O)N(C)[C@H](Cc2nc(C(F)(F)F)no2)C(=O)N[C@H](Cc2ccccc2)COc2ccc3ncc(F)cc3c2C(=O)N[C@H](C(=O)NCCCOC(F)(F)F)CC(=O)N1C` [Example 925, (3S,7S,10R,13R)-13-benzyl-20-fluoro-7-isobutyl-6,9-dimethyl-1,5,8,11-tetraoxo-N-(3-(trifluoromethoxy)propyl)-10-((3-(trifluoromethyl)-1,2,4-oxadiazol-5-yl)methyl)-1,2,3,4,5,6,7,8,9,10,11,12,13,14-tetradecahydro-[1]oxa[4,7,10,14]tetraazacycloheptadecino[16,17-f]quinoline-3-carboxamide], the pEC50 was 7.04 and the Emax worked out at 286%.

For `COc1cc(CCNC(=O)[C@@H]2CC(=O)N(C)[C@@H](CC(C)C)C(=O)N(C)[C@]3(C[C@H](OC)C3)C(=O)N[C@H](Cc3ccccc3)COc3ccc4ncc(F)cc4c3C(=O)N2)on1` [Example 926, (1r,3S,3′S,7′S,13′R)-13′-benzyl-20′-fluoro-7′-isobutyl-3-methoxy-N-(2-(3-methoxyisoxazol-5-yl)ethyl)-6′,9′-dimethyl-1′,5′,8′,11′-tetraoxo-2′,3′,4′,5′,6′,7′,8′,9′,11′,12′,13′,14′-dodecahydro-1′H-spiro[cyclobutane-1,10′-[1]oxa[4,7,10,14]tetraazacycloheptadecino[16,17-f]quinoline]-3′-carboxamide], the pEC50 is 6.12 and the Emax came out at 416%.
